In ChEMBL document CHEMBL1201862, “PubChem BioAssay data set” (2004):
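Five concentrations, 48 hours, 96-well plates. GI50 is the concentration that inhibits growth by half.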 Activity calls are given as the source filed them. Rule as the data show it: active = GI50 up to about 1.1 µM and inactive = higher.

Tests used:
Assay in all cases: growth of human tumour cells (NCI), 48 h
RXF 393 = tested on: RXF 393
SNB-75 = tested on: SNB-75
SNB-19 = tested on: SNB-19
UO-31 = tested on: UO-31
BT-549 = tested on: BT-549
IGROV-1 = tested on: IGROV-1
SN12C = tested on: SN12C
OVCAR-8 = tested on: OVCAR-8
CCRF-CEM = tested on: CCRF-CEM
NCI-H460 = tested on: NCI-H460
NCI/ADR-RES = tested on: NCI/ADR-RES
M14 = tested on: M14
OVCAR-3 = tested on: OVCAR-3
A549 = tested on: A549
SK-MEL-5 = tested on: SK-MEL-5
Hs-578T = tested on: Hs-578T
DU-145 = tested on: DU-145
PC-3 = tested on: PC-3
KM12 = tested on: KM12
HCC 2998 = tested on: HCC 2998

| SMILES | GI50 (RXF 393) | GI50 (SNB-75) | GI50 (SNB-19) | GI50 (UO-31) | GI50 (BT-549) | GI50 (IGROV-1) | GI50 (SN12C) | GI50 (OVCAR-8) | GI50 (CCRF-CEM) | GI50 (NCI-H460) | GI50 (NCI/ADR-RES) | GI50 (M14) | GI50 (OVCAR-3) | GI50 (A549) | GI50 (SK-MEL-5) | GI50 (Hs-578T) | GI50 (DU-145) | GI50 (PC-3) | GI50 (KM12) | GI50 (HCC 2998) |
| --- | --- | --- | --- | --- | --- | --- | --- | --- | --- | --- | --- | --- | --- | --- | --- | --- | --- | --- | --- | --- |
| C/C(=C/CC[C@]1(CO)CC[C@]2(CO)[C@H](CC[C@@H]3[C@@]4(C)CC[C@H](OC5OCC(O)C(O)C5OC5OC(CO)C(O)C(O)C5O)C(C)(C)[C@@H]4CC[C@]32C)[C@H]1O)CO (stereo partly drawn) | > 100 µM (inactive) | > 100 µM (inactive) | > 100 µM (inactive) | > 100 µM (inactive) | > 100 µM (inactive) | > 100 µM (inactive) | > 100 µM (inactive) | > 100 µM (inactive) | > 100 µM (inactive) | > 100 µM (inactive) | > 100 µM (inactive) | > 100 µM (inactive) | > 100 µM (inactive) | > 100 µM (inactive) | > 100 µM (inactive) | > 100 µM (inactive) | > 100 µM (inactive) | > 100 µM (inactive) | > 100 µM (inactive) |  |
| C/C=C(/C)c1cnc(CC(C)C)c(=O)[nH]1 | > 100 µM (inactive) | > 100 µM (inactive) | > 100 µM (inactive) | > 100 µM (inactive) | > 100 µM (inactive) | > 100 µM (inactive) | > 100 µM (inactive) | > 100 µM (inactive) | > 100 µM (inactive) | > 100 µM (inactive) |  |  | > 100 µM (inactive) | > 100 µM (inactive) | > 100 µM (inactive) | > 100 µM (inactive) | > 100 µM (inactive) | > 100 µM (inactive) | > 100 µM (inactive) | > 100 µM (inactive) |
| CC(CC(=O)CO[C@H]1[C@H](O)[C@@H](O)[C@@H](O)[C@@H]2NC(=O)c3c(cc4c(c3O)OCO4)[C@H]21)OC1OC(CO)C(O)C(O)C1O (stereo partly drawn) | 0.269 µM (active) | 0.207 µM (active) | 0.304 µM (active) | 1.38 µM (inactive) | 0.495 µM (active) | 0.547 µM (active) | 0.322 µM (active) | 0.313 µM (active) | 0.182 µM (active) | 0.432 µM (active) | 0.543 µM (active) | 0.425 µM (active) | 0.451 µM (active) | 0.646 µM (active) | 0.322 µM (active) | 0.4 µM (active) |  | 0.338 µM (active) | 0.3 µM (active) | 0.218 µM (active) |
| O=C1c2ccccc2C(=O)c2c1ccc(C1C(=O)c3ccccc3C1=O)c2-c1c(C2C(=O)c3ccccc3C2=O)ccc2c1C(=O)c1ccccc1C2=O | > 100 µM (inactive) | > 100 µM (inactive) | > 100 µM (inactive) | > 100 µM (inactive) | > 100 µM (inactive) | > 100 µM (inactive) | > 100 µM (inactive) | > 100 µM (inactive) |  | > 100 µM (inactive) | > 100 µM (inactive) | > 100 µM (inactive) | > 100 µM (inactive) | > 100 µM (inactive) | > 100 µM (inactive) | > 100 µM (inactive) | > 100 µM (inactive) | > 100 µM (inactive) | > 100 µM (inactive) |  |
| Cc1cn(CC(=S)NCCc2c[nH]c3ccccc23)c(=O)[nH]c1=O | > 100 µM (inactive) |  | > 100 µM (inactive) | 87.1 µM (inactive) | > 100 µM (inactive) | > 100 µM (inactive) | > 100 µM (inactive) |  | 44.3 µM (inactive) |  | 99.1 µM (inactive) | > 100 µM (inactive) | > 100 µM (inactive) | 74.1 µM (inactive) | 35.5 µM (inactive) | 84.1 µM (inactive) | > 100 µM (inactive) | 77.1 µM (inactive) | > 100 µM (inactive) |  |
| CC(/C=C/c1ccc([N+](=O)[O-])o1)=N/N1CC(CN2CCOCC2)OC1=O (stereo not drawn) |  |  | 48.1 µM (inactive) | 21.3 µM (inactive) | 6.58 µM (inactive) |  | 25.4 µM (inactive) | 16.5 µM (inactive) | 0.771 µM (active) | 21.5 µM (inactive) | 30.2 µM (inactive) | 17.3 µM (inactive) | 16.1 µM (inactive) | 26.8 µM (inactive) | 14.7 µM (inactive) | 44.8 µM (inactive) | 19.9 µM (inactive) | 14 µM (inactive) | 42.8 µM (inactive) | 28.9 µM (inactive) |
| NCCCCN(CCCN)Cc1ccc2ccccc2c1 | 63.4 µM (inactive) | 2.94 µM (inactive) | 12.9 µM (inactive) | 13.7 µM (inactive) | 90.4 µM (inactive) | 25.2 µM (inactive) | 12.9 µM (inactive) | 39.4 µM (inactive) | 27.1 µM (inactive) | 15.7 µM (inactive) | > 100 µM (inactive) | 57 µM (inactive) |  | 51.9 µM (inactive) | 92.7 µM (inactive) | 11.3 µM (inactive) | 66.7 µM (inactive) |  | 27.4 µM (inactive) | 10.6 µM (inactive) |
| COc1cccc(C2SC(=N)Nc3c2c(C)nn3C(=O)c2ccccc2O)c1 (stereo not drawn) | 2.14 µM (inactive) | 0.925 µM (active) | > 10 µM (inactive) | > 10 µM (inactive) | > 10 µM (inactive) | > 2.11 µM (inactive) | > 3.35 µM (inactive) | > 2.76 µM (inactive) | > 3.21 µM (inactive) | 3.22 µM (inactive) | > 3.78 µM (inactive) | > 5.47 µM (inactive) | > 3.65 µM (inactive) | 1.75 µM (inactive) | > 6.53 µM (inactive) |  | > 2.44 µM (inactive) | > 10 µM (inactive) | > 2.79 µM (inactive) | > 10 µM (inactive) |
| COc1cc(/C=N/c2ccc(Oc3ccc(Cl)cc3)c(Cl)c2)cc(OC)c1OC |  | 23.7 µM (inactive) | 21.8 µM (inactive) | 11 µM (inactive) | 15.9 µM (inactive) | 21.8 µM (inactive) | 20.9 µM (inactive) | 25.8 µM (inactive) | 12.4 µM (inactive) | 19.3 µM (inactive) | 22.9 µM (inactive) | 23.3 µM (inactive) | 20 µM (inactive) | 18.5 µM (inactive) | 17.7 µM (inactive) | 15.8 µM (inactive) | 11.7 µM (inactive) | 14.3 µM (inactive) | 21.3 µM (inactive) | 19.3 µM (inactive) |
| C[C@H]1CC[C@@H]2[C@@H](C)C[C@H]3[C@@H]4C(C)(C)OC(=O)[C@]4(C)C(=O)[C@@]23C1=O |  | > 100 µM (inactive) | > 100 µM (inactive) |  | > 100 µM (inactive) | > 100 µM (inactive) | > 100 µM (inactive) | > 100 µM (inactive) | > 100 µM (inactive) | > 100 µM (inactive) | > 100 µM (inactive) | > 100 µM (inactive) | > 100 µM (inactive) | > 100 µM (inactive) | > 100 µM (inactive) | > 100 µM (inactive) | > 100 µM (inactive) |  | > 100 µM (inactive) | > 100 µM (inactive) |
| CCNCC(O)c1ccc(N)c([N+](=O)[O-])c1 (stereo not drawn) |  | > 100 µM (inactive) | > 100 µM (inactive) | > 100 µM (inactive) | > 100 µM (inactive) | > 100 µM (inactive) | > 100 µM (inactive) | > 100 µM (inactive) | > 100 µM (inactive) | > 100 µM (inactive) | > 100 µM (inactive) | > 100 µM (inactive) | > 100 µM (inactive) | > 100 µM (inactive) | > 100 µM (inactive) | > 100 µM (inactive) | > 100 µM (inactive) | > 100 µM (inactive) |  |  |
| CCCCCCCCCCCC[S+](C)C | 2.07 µM (inactive) | 5.68 µM (inactive) | 6.59 µM (inactive) | 10.1 µM (inactive) | 2.19 µM (inactive) | 2 µM (inactive) | 3.88 µM (inactive) | 4.67 µM (inactive) | 2.04 µM (inactive) | 9.4 µM (inactive) | > 44.1 µM (inactive) | 5.14 µM (inactive) | 5.38 µM (inactive) | 11.5 µM (inactive) | 3.17 µM (inactive) |  | 1.61 µM (inactive) | 1.58 µM (inactive) | 3.36 µM (inactive) | 4.21 µM (inactive) |
| Cc1ccc(-c2c(C#N)c(-c3ccc(Cl)cc3)c(C#N)c(=O)n2NS(=O)(=O)c2ccccc2)cc1 | 32 µM (inactive) | 47.5 µM (inactive) | 80.7 µM (inactive) |  | 34.4 µM (inactive) | 33 µM (inactive) | 95.1 µM (inactive) | 76.4 µM (inactive) | 34.4 µM (inactive) | 44.4 µM (inactive) | 26.9 µM (inactive) | > 100 µM (inactive) |  | 68.4 µM (inactive) | 31.9 µM (inactive) | 24.4 µM (inactive) |  | 29.9 µM (inactive) | 81.7 µM (inactive) | 37.1 µM (inactive) |
| CC1(C)CC(=O)c2c(nc3ccc4ccccc4c3c2-c2ccc(NC(=O)CCCCCCCCC(=O)Nc3ccc(-c4c5c(nc6ccc7ccccc7c46)CC(C)(C)CC5=O)cc3)cc2)C1 |  |  | > 100 µM (inactive) | > 100 µM (inactive) | > 100 µM (inactive) | > 100 µM (inactive) | > 100 µM (inactive) | > 100 µM (inactive) | > 100 µM (inactive) | > 100 µM (inactive) | > 100 µM (inactive) | > 100 µM (inactive) | > 100 µM (inactive) | > 100 µM (inactive) | > 100 µM (inactive) | > 100 µM (inactive) | > 100 µM (inactive) | > 100 µM (inactive) | > 100 µM (inactive) |  |
| N=C(N)NC(CC(=O)O)c1ccccc1 (stereo not drawn) | > 100 µM (inactive) | > 100 µM (inactive) | > 100 µM (inactive) | > 100 µM (inactive) | > 100 µM (inactive) | > 100 µM (inactive) | > 100 µM (inactive) | > 100 µM (inactive) |  | > 100 µM (inactive) | > 100 µM (inactive) | > 100 µM (inactive) | > 100 µM (inactive) | > 100 µM (inactive) | > 100 µM (inactive) | > 100 µM (inactive) | > 100 µM (inactive) | > 100 µM (inactive) | > 100 µM (inactive) |  |
